PubChem BioAssay AID2305 (GlaxoSmithKline (GSK), 2010)

Each compound was assayed on P. falciparum 3D7 growth, pLDH absorbance (assay: P. falciparum 3D7 growth inhibition, dose response, strain 3D7 (AID 2305)).
Work on `Cn1cncc1C(=O)Nc1cccc(-c2ccc(-c3nc4ccccc4[nH]3)s2)c1` yielded an IC50 of 800 nM. `Cc1cc(N(C)C)nc(Nc2ccc(NC(=O)c3c(F)cccc3Cl)cc2)n1` gave an IC50 of 1090 nM. `CC(=O)Nc1cccc(C(=O)Nc2cccc(-c3ccc(-c4nc5ccc(F)cc5[nH]4)s3)c2)c1` showed an IC50 of 900 nM. `COc1ccc(Nc2cc(C)nc(NCc3ccc4c(c3)OCO4)n2)cc1` showed an IC50 of 770 nM. `COc1ccc(Nc2nccc(N3CCC(NC(=O)C(C)c4ccc(Cl)cc4)C3)n2)cc1` (stereo not given) gave an IC50 of 1010 nM. `Cc1cc(N)c2cc(NC(=O)/C=C/c3ccc([N+](=O)[O-])cc3)ccc2n1` gave an IC50 of 670 nM. For `N#Cc1ccc(N(CCOc2ccc(Cl)cc2)Cc2ccccc2C(F)(F)F)cc1C(F)(F)F`, the IC50 was 660 nM. Compound `Cc1ccc(C2(CN3CCC(NC(=O)c4ccn[nH]4)CC3)CCCCC2)cc1` has an IC50 of 220 nM. With `COc1cccc2cc(C(=O)N[C@@H](CC(C)C)C(=O)NC3CC[C@@H](C)N(C(=O)Nc4ccncc4)CC3=O)oc12` (stereo not given in full) the IC50 was 290 nM. With `O=C(NCc1ccc(C(=O)NC2CCCCCC2)cc1)c1ccc(O)c(-c2ccc(Cl)c(Cl)c2)c1` the IC50 was 1060 nM. In the case of `N=c1c2c(n(Cc3ccc(Cl)cc3Cl)c3c1CCC3)CCCC2`, the IC50 is reported as 350 nM. Work on `Cc1[nH]c(C)c(-c2ccc(-c3cccc(Cl)c3)nc2)c(=O)c1Cl` yielded an IC50 of 190 nM. Work on `CC(C)C1CCc2nc(N)nc(N)c2C1` (stereo not given) yielded an IC50 of 140 nM. Compound `CCN1CCN(Cc2c(O)ccc3c(=O)c(Oc4cc(C)cc(C)c4)c(C(F)(F)F)oc23)CC1` has an IC50 of 770 nM. Compound `CC(C)(C)c1ccc(NC(=O)c2cccc(CN3CCCN(CC4CCCCC4)CC3)c2)cc1` has an IC50 of 740 nM. `COc1ccc2nccc([C@@H](O)CN3CCC(NCc4ccc5c(n4)NCCC5)CC3)c2c1` gave an IC50 of 740 nM. `O=C(Nc1ccc(Cl)cc1C(=O)Nc1ccncc1)c1ccc(Cl)cc1Cl` showed an IC50 of 610 nM. `COc1ccc(CCOc2c(C)nc(N)nc2N)cc1OC` was tested, and the IC50 was 70 nM. Compound `CC(=NNc1nc2ccccc2s1)c1ccccn1` has an IC50 of 1120 nM. `Cn1c(/C=C/C(=O)NC2CCC(CCN3CCc4ccc(C#N)cc4CC3)CC2)cc2ccccc21` (stereo not given) was tested, and the IC50 was 730 nM. For `CN1CCN(Cc2ccc(-c3ccc4c(Nc5ccc(F)cc5Cl)ccnc4c3)o2)CC1`, the IC50 was 140 nM. For `O=C(Nc1cccc(OC2CCN(Cc3ccccc3)CC2)c1)c1ccc(Cl)c(Cl)c1`, the IC50 was 720 nM. In the case of `O=C(Nc1cccc(C(F)(F)F)c1)NC1CCN(c2ccnc3cc(Cl)ccc23)C1` (stereo not given), the IC50 is reported as 120 nM. Compound `Cc1ccc2nc3sc(C(=O)NCCCN4CCC(N5CCCCC5)CC4)cc3cc2c1` has an IC50 of 670 nM. Compound `CCOC(=O)c1ccc(NC(=O)Nc2cccc(-c3cccc(-c4nc5c(C)cccc5[nH]4)c3)c2)cc1` has an IC50 of 110 nM. `CN1CCC(c2c[nH]c3ccc(NC(=O)Nc4ccc(-c5ccncc5)cc4Cl)cc23)CC1` was tested, and the IC50 was 840 nM. For `O=C(NCCCCN1CCC(c2ccc(OC(F)(F)F)cc2)CC1)c1ccc(NC(=O)c2ccc(Cl)cc2)cc1`, the IC50 was 630 nM. `O=C(Nc1ccc(-n2ccc(C(F)(F)F)n2)cc1)c1cccs1` showed an IC50 of 1070 nM. `CC(NC(=O)c1ccc(O)c(-c2ccc(Cl)c(Cl)c2)c1)C(=O)NCCN1CCOCC1` (stereo not given) was tested, and the IC50 was 960 nM. With `O=C(/C=C/c1ccc(Cl)c(Cl)c1)NCCCCCN1CCCN(C(=O)Nc2ccc(Cl)c(C(F)(F)F)c2)CC1` the IC50 was 730 nM. With `CN1CCN(CCCN(Cc2ccc(-c3cccc(CNC4CCCC4)c3)cc2)C(=O)/C=C/c2ccccc2)CC1` the IC50 was 1330 nM. For `COc1cc(Cc2cnc(N)nc2N)cc(OCCCCC#N)c1OC`, the IC50 was 1040 nM. In the case of `CS(=O)(=O)NCCCNCc1ccc(-c2cccc(-c3nc4ccc(F)cc4[nH]3)c2)cc1`, the IC50 is reported as 800 nM. For `c1ccc(CN2CCCN(c3ccc4c(c3)CCN(Cc3ccc(-c5ncc[nH]5)cc3)CC4)CC2)cc1`, the IC50 was 760 nM. In the case of `COc1ccc2nccc([C@@H](O)CN3CCC(NCc4cc5oc(=O)[nH]c5cc4F)CC3)c2c1`, the IC50 is reported as 770 nM. With `Fc1ccc2nc(-c3ccc(-c4cccc(CN5CCN(c6ccncc6)CC5)c4)cc3)[nH]c2c1` the IC50 was 90 nM. `O=C(Nc1ccc(Cl)cc1)Nc1ccc(-c2cccc(-c3nc4ccc(F)cc4[nH]3)c2)cc1` was tested, and the IC50 was 290 nM. Compound `COc1ccc(NC(=O)[C@H](Cc2ccccc2)Nc2cc(C)nc(NCC3CCCCC3)n2)cc1` has an IC50 of 680 nM. Work on `Fc1ccc(OC2CN(c3nccc(NCc4ccccc4Cl)n3)C2)cc1` yielded an IC50 of 900 nM. Compound `Fc1ccc(-c2oc(C3CCN(CCc4ccc(-c5nc(=S)o[nH]5)cc4)CC3)nc2COCC(F)(F)F)cc1` has an IC50 of 420 nM. `O=C(CN1CCN(C(=O)c2ccco2)CC1)Nc1ccc(Br)cc1Cl` gave an IC50 of 770 nM. Work on `COc1ccc(C(=O)N2CCC(CN3CCOC(c4ccccc4)(c4ccccc4)C3)CC2)cc1` yielded an IC50 of 170 nM. For `O=C(/C=C/c1ccc(Cl)c(Cl)c1)NCCCCCN1CCC(NC(=O)Nc2ccc(OC(F)F)cc2)CC1`, the IC50 was 750 nM. `Cc1ccc(N2C(N)=NC(N)=NC2(C)C)cc1Cl` was tested, and the IC50 was 10 nM. For `CCCOc1ccc(-c2nonc2NC(=O)c2ccccc2OC)cc1OCCC`, the IC50 was 860 nM. `COc1ccc(CNCc2ccc(-c3cccc(-c4nc5ccccc5[nH]4)c3)cc2)cc1` showed an IC50 of 210 nM. Compound `COc1ccc(-c2ccccc2CNC2Cc3ccccc3C2)cc1S(=O)(=O)NCCN1CCCC1` has an IC50 of 870 nM. `CN(C)c1cc(NC(=O)Nc2ccc(SC(F)(F)F)cc2)c2ccccc2n1` was tested, and the IC50 was 140 nM. `NC(=O)c1sc(-n2cnc3ccccc32)cc1OCc1ccccc1[N+](=O)[O-]` was tested, and the IC50 was 700 nM. `CCCC1(NC[C@@H](O)[C@H](Cc2ccccc2)NC(=O)c2cc(NCC)cc(N3CCCCS3(=O)=O)c2)CCCC1` was tested, and the IC50 was 500 nM. `N#Cc1cc(C(=O)Nc2ccccc2)c(N)nc1SCC(=O)NC(c1ccccc1)c1cccs1` (stereo not given) was tested, and the IC50 was 610 nM. For `N#Cc1ccc2c(c1)CN(C1CCC(NC(=O)/C=C/c3cc(C(F)(F)F)cc(C(F)(F)F)c3)CC1)CCC2` (stereo not given), the IC50 was 1390 nM. `O=C(Nc1ccc(-c2cccc(-c3nc4ccc(F)cc4[nH]3)c2)cc1)c1ccncc1` gave an IC50 of 720 nM. In the case of `CSc1ccc(CN2CCC(NC(=O)c3ccc(-c4cccc(Cl)c4)s3)CC2)cc1`, the IC50 is reported as 1290 nM. Compound `CCN1CCN(c2cc(C)c3cc(NC(=O)C=Cc4cccc(OC)c4OC)ccc3n2)CC1` has an IC50 of 700 nM. `Nc1ccc(-c2cc(Cl)cc(Cl)c2)cc1-c1cc2ccccc2[nH]1` was tested, and the IC50 was 690 nM. For `Oc1ccc(OCc2ccccn2)cc1`, the IC50 was 980 nM. `O=C(NCc1ccc(Cl)c(Cl)c1)c1cc(CNC2CCNCC2)ccc1O` was tested, and the IC50 was 860 nM. For `COc1cc(C(=O)Nc2cccc(-c3cn4cccc(C)c4n3)c2)cc(OC)c1OC`, the IC50 was 700 nM. In the case of `C[C@@H]1CN(c2cnn(C/C=C/c3ccc(NC(=O)c4ccc(Cl)cc4)cc3)c(=O)c2Cl)C[C@H](C)N1`, the IC50 is reported as 850 nM. Compound `CCCCCC(C)C(C)c1cc(O)c2c(c1)OC(C)(C)CC2(O)c1ccccn1` (stereo not given) has an IC50 of 740 nM. Compound `COC1CCC(C(=O)Nc2ccc(-c3cccc(-c4nc5ccc(C(F)(F)F)cc5[nH]4)c3)cc2)CC1` (stereo not given) has an IC50 of 550 nM. `CCNc1cc(C(=O)N[C@@H](Cc2ccccc2)[C@H](O)CNCCc2cc(OC)cc(OC)c2)cc(N2CCCCS2(=O)=O)c1` showed an IC50 of 1140 nM. `CC(=NNC(=S)NCc1ccco1)c1ccccn1` was tested, and the IC50 was 250 nM. `O=C(CCN1C(=O)c2ccccc2C1=O)N1CCN(CC=Cc2ccccc2)CC1` gave an IC50 of 540 nM. Compound `COc1ccc(C(=O)Nc2cc(Br)c3c(c2)CNCC3)cc1C(F)(F)F` has an IC50 of 1070 nM. With `N#Cc1ccc2c(c1)CCN(CCC1CCC(NC(=O)/C=C/c3ccc(F)c4ccccc34)CC1)CC2` (stereo not given) the IC50 was 840 nM. For `CNCCNCc1ccc(-c2ccc(-c3nc4c(C)cccc4[nH]3)s2)cc1`, the IC50 was 730 nM. With `COc1ccc2nccc(N(C)CC3(O)CCN(CC(O)c4ccc5c(c4)NC(=O)CS5)CC3)c2n1` (stereo not given) the IC50 was 590 nM. For `Cc1cccc2[nH]c(-c3ccc(-c4ccc(NC(=O)NCc5ccc(F)cc5)cc4)cc3)nc12`, the IC50 was 1330 nM. With `NC(N)=NN=Cc1ccccc1OCc1ccccc1Cl` the IC50 was 720 nM. Work on `CN(C)CCc1c[nH]c2ccc(C(=O)Nc3ccc(-c4ccncc4)cc3)cc12` yielded an IC50 of 570 nM. Compound `CCOc1ccc(-c2nc(NC(=O)Cc3cccc(OC)c3)sc2C)cc1` has an IC50 of 730 nM. In the case of `Cc1nc2nc(N)nc(N)c2c(C)c1Cc1ccc(C(N)=O)cc1`, the IC50 is reported as 530 nM. With `S=C(NN=Cc1ccccn1)Nc1ccc(Cl)c(Cl)c1` the IC50 was 770 nM. With `CN(C)CCNCc1nc(-c2ccc3c(Nc4ccc(Oc5ccccc5)cc4)ccnc3c2)cs1` the IC50 was 740 nM. `Fc1ccc2nc(-c3cccc(-c4ccc(CNCCN5CCNCC5)cc4)c3)[nH]c2c1` was tested, and the IC50 was 900 nM. Compound `COc1ccc(CCN(C)CCOc2ccc(NC(=O)c3cccc4cc5ccccc5nc34)cc2)cc1OC` has an IC50 of 680 nM. `COc1cccc(C(=O)Nc2nc3c(s2)CCN(Cc2ccccc2N2CCNCC2)CC3)c1` gave an IC50 of 890 nM. Compound `Cc1cc(CNC(c2ccccc2)C2CCC2)cc(C)c1O` (stereo not given) has an IC50 of 890 nM. With `CCOC(=O)CN1Cc2cc(NCc3ccc4ccc5nc(C)[nH]c(=O)c5c4c3)ccc2C1=O` the IC50 was 700 nM. In the case of `CC[C@H]1CN2CC[C@H]1C[C@H]2[C@H](O)c1cc(-c2ccc(SC)cc2)nc2ccc(OC)cc12`, the IC50 is reported as 60 nM. `Cc1ccc(-c2cccc3c(NC(=O)Nc4ccc5nccc(N6CCN(C)CC6)c5c4)cccc23)cn1` was tested, and the IC50 was 350 nM. `Cc1cccc2[nH]c(-c3ccc(-c4cccc(NC(=O)Nc5ccc(F)c(F)c5F)c4)cc3)nc12` showed an IC50 of 340 nM. For `COc1ccc(-c2cnc3[nH]cc(-c4ccncc4)c3c2)cc1OC`, the IC50 was 130 nM. With `CCCCCCCCCCNCC(O)c1ccc(O)c(C(=O)OC)c1` (stereo not given) the IC50 was 720 nM. `C[C@@H](COc1ccccc1)NCC(O)c1ccc([N+](=O)[O-])c(OCc2ccccc2)c1` (stereo not given in full) gave an IC50 of 990 nM. With `COc1cc(C=CC(=O)N2CCC3(CC2)CC(=O)c2ccccc2O3)cc(OC)c1OC` the IC50 was 760 nM. With `O=c1[nH]c2c(cc1CNC1CCCCC1)c(-c1cccc(F)c1)nn2-c1ccccc1` the IC50 was 950 nM. `Cc1cc(N)nc2ccc(-c3ccc(CCN)cc3)cc12` gave an IC50 of 620 nM. `CC(C)CNCc1cccc(-c2ccc(CN(C(=O)c3cccs3)C3CCN(Cc4ccccc4)CC3)cc2)c1` was tested, and the IC50 was 1010 nM. `Nc1nc2ccc(CN(C=O)c3ccc(C(=O)N[C@@H](CCC(=O)O)C(=O)O)cc3)cc2c(=O)[nH]1` was tested, and the IC50 was 180 nM. With `Nc1ccc2c(N)c3ccccc3nc2c1` the IC50 was 810 nM. In the case of `Nc1c2ccccc2nc2ccc(Cl)cc12`, the IC50 is reported as 810 nM. `CCCCN(Cc1cc(Cl)c(OC)c(OC)c1)c1ccc(C(O)(C(F)(F)F)C(F)(F)F)cc1` showed an IC50 of 190 nM. `O=C(/C=C/c1c[nH]c2ccccc12)NCCCCCN1CCC(c2c[nH]c3ccccc23)CC1` gave an IC50 of 930 nM. For `Cc1ccccc1C1CCN(C2CCC(NC(=O)C3=Cc4cc(Cl)ccc4OC3)CC2)CC1` (stereo not given), the IC50 was 890 nM. `Cc1cc2c(cc1C(F)(F)F)N(C(=O)Nc1ccc(C(=O)NC3CCN(Cc4ccccc4)C3)cc1)CC2` (stereo not given) gave an IC50 of 780 nM. `COc1ccc(NC(=O)Nc2nc3ccccc3s2)cc1N1CCN(C)CC1` gave an IC50 of 700 nM. Work on `Cc1ccccc1C(=O)Nc1cccc(-c2nc3ncccn3c2C)c1` yielded an IC50 of 760 nM.
